Data on 16 molecules can be found in US20050112128A1, “Inhibition of protein kinase c-mu (PKD) as a treatment for cardiac hypertrophy and heart failure” (Myogen, Inc. and Board of Regents, The University of Texas …, priority 2003, published 2005).

Entries after “also recorded” stand apart in the source; their conditions may differ. Where no end group is shown, it is not given here.

The test system of experiment [1] is nuclear export of HDAC5 in COS cells. Nature of the experiment: GFP-HDAC5 nuclear export in transfected COS cells (fluorescence microscopy). The class given is cell-based. The following applies: COS cells transfected with GFP-HDAC5; 60 min after addition of compounds. How it is done:
FIGS. 1A-D—PKC-dependent nuclear export of HDAC5. FIG. 1A. COS cells were cultured on 6-well dishes, transfected with a GFP-HDAC5 expression vector (1 μg) and stimulated with the indicated compounds, as described in Materials and Methods. Sixty minutes after addition of compounds, GFP-HDAC5 distribution was determined by fluorescence microscopy. […] FIG. 1B. COS cells were transfected with expression vectors encoding FLAG-tagged versions of either HDAC5 or an HDAC5 mutant harboring alanines in place of serines 259 and 498 (HDAC5 S259/498A) (1 μg each). Cells were stimulated with PMA for 60 min and HDAC5 distribution was determined by indirect immunofluorescence with anti-FLAG primary antibody and fluorecein-conjugated secondary antibody. HDAC5 259/498A is refractory to PMA stimulation. FIG. 1C. COS cells transfected with GFPHDAC5 encoding expression vector (1 μg) and stimulated with PMA for the indicated times. FIG. 1D. COS cells were transiently transfected with expression vectors encoding FLAG-tagged versions of HDAC5 or HDAC5 S259/498A (1 μg each). Cells were pretreated with the PKC inhibitor bisindolylmaleimide (Bis I; 10 μM) for 30 minutes and stimulated with PMA for 30 min, as indicated. Association of FLAG-HDAC5 with endogenous 14-3-3 was detected by sequential immunoprecipitation and immunoblotting.
Cell culture and transfection assays. COS cells were maintained in DMEM with FBS (10%), L-glutamine (2 mM), and penicillin-streptomycin. Transfection of COS cells was performed with Fugene 6 (Roche Molecular Biochemicals) according to manufacturer's instructions. For HDAC localization experiments, cells were treated 16-24 hours after transfection with PMA (100 nM), ionomycin […], 8-Br-cAMP (1 mM), pCPT-GMP (1 mM), or anisomycin (1 mM). Where noted, specific protein kinase inhibitors were added 30 min prior to the addition of any chemical stimulus. GFP-HDAC5 was visualized with standard fluorescent microscopic techniques. For indirect immunofluorescence of FLAG-HDAC5, COS cells were seeded on glass coverslips, transfected, and treated as above. After specific treatment, cells were fixed with buffered formalin (10%) and stained in PBS containing BSA (3%) and Nonidet P-40 (0.1%). Flag M2 antibody (Sigma) was used at a concentration of 1:200. Secondary fluoresceine-conjugated antibody (Vector Laboratories) was also used at a concentration of 1:200. Staining of cardiomyocytes for sarcomeres and atrial natriuretic factor (ANF) was performed by indirect immunofluorescence detection as above with antibodies directed against sarcomeric α-actinin (Sigma) and ANF (Peninsula Laboratories), respectively.

The next experiment concerns the target T1, PKD (Homo sapiens, UniProt Q15139).
T1 sequence (Q15139 1-912): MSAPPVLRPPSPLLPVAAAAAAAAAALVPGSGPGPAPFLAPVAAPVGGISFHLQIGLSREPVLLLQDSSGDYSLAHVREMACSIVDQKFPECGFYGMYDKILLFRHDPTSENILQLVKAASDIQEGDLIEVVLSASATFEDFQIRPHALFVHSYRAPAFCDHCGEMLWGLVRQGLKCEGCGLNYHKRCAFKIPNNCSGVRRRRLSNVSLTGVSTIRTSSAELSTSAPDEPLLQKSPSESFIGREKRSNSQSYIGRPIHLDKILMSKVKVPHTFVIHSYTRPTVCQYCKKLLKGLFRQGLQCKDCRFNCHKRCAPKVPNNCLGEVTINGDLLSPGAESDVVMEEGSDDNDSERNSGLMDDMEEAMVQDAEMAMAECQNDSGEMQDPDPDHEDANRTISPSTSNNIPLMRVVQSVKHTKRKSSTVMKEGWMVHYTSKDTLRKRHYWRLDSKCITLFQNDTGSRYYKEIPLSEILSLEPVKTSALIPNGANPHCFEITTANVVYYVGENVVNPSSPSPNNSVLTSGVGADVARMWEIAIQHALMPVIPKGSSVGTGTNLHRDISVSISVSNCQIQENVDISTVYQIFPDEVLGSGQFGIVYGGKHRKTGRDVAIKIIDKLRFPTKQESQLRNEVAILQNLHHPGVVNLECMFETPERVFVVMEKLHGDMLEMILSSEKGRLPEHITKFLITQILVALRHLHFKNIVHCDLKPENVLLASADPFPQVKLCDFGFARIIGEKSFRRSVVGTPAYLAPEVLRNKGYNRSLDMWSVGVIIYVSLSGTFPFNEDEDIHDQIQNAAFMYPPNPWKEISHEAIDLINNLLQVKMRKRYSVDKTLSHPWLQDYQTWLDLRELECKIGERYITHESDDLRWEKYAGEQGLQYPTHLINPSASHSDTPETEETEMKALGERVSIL
To be noted: literature (Van Lint 2002; Gschwendt 1996; Haworth); cited from earlier work.

Experiment [2] relates to nuclear export of GFP-HDAC5 in NRVMs. Briefly: Quantitative HDAC5 nuclear export assay in NRVMs (Cellomics High Content Imaging System). The class given is cell-based, rat. To be noted: 2 hrs; for block of PE-induced nuclear export of HDAC5: PE 20 μM, KN93, wortmannin, staurosporine 1 mM, U1026, HA1077, Y-27632, DAG Kinase inhibitor II, SB216763, Bis I 10 mM, rapamycin 30 ng/ml, Gö6983 10 μM.

Another experiment has as its system HDAC5-bound PKD. The class given is biochemical, rat. To be noted: NRVMs pre-treated 30 min with 10 μM inhibitor (pre-Bis I).
[3] abbreviates: NRVMs, inhibitor pre-treatment 30 min.

Take `Nc1ncnc2c1nc(Br)n2[C@@H]1O[C@@H]2COP(=O)(O)O[C@H]2[C@H]1O` [8-Br-cAMP]: in experiment [1], the “stimulation of nuclear export of GFP-HDAC5” value was “only ionomycin and PMA stimulated nuclear export”.
As to `CN(C)CCCn1cc(C2=C(c3c[nH]c4ccccc34)C(=O)NC2=O)c2ccccc21` [Bis I, bisindolylmaleimide I], the “sensitivity of PKD to the inhibitor” value on PKD was “not to Bis I or Gö6983”. The “block of ET-1-induced nuclear export of HDAC5” value in experiment [2] (NRVMs, ET-1 50 nM, inhibitor pre-treatment 30 min) is recorded as “had no effect”. The “block of FBS-induced nuclear export of HDAC5” value in experiment [2] (NRVMs, FBS 10%, inhibitor pre-treatment 30 min) was “had no effect”. Further, the “block of PE-induced nuclear export of HDAC5” value in experiment [2] (setting [3]) is “effective in blocking PE-dependent export of HDAC5; also recorded: inhibitory effect on PE-dependent HDAC5 nuclear export; also recorded: effective in blocking HDAC5 nuclear export”. In addition, in the experiment with HDAC5-bound PKD, the “block of HDAC5 phosphorylation, inhibitor given to cells before PMA” value is given as “Phosphorylation of HDAC5 was blocked”.
With `O=c1c2ccccc2[nH]c(=S)n1CCN1CCC(=C(c2ccc(F)cc2)c2ccc(F)cc2)CC1` [DAGK inhibitor II], the “block of PE-induced nuclear export of HDAC5” value in experiment [2] (setting [3]) is given as “did not significantly affect PE-induced nuclear export of HDAC5”.
Regarding `CN(C)CCCn1cc(C2=C(c3c[nH]c4ccccc34)C(=O)NC2=O)c2ccccc21` [GF I], the “sensitivity of PKD to the inhibitor” value on PKD was “insensitive”.
Consider `COc1ccc2c(c1)c(C1=C(c3c[nH]c4ccccc34)C(=O)NC1=O)cn2CCCN(C)C` [Go6983], for which the “sensitivity of PKD to the inhibitor” value at PKD is on record as “not to Bis I or Gö6983”. Besides, the “block of PE-induced nuclear export of HDAC5” value in experiment [2] (setting [3]) is recorded as “inhibiting HDAC5 nuclear export in response to PE”.
Take `O=S(=O)(c1cccc2cnccc12)N1CCCNCC1` [HA1077]: the “block of PE-induced nuclear export of HDAC5” value in experiment [2] (setting [3]) is “did not significantly affect PE-induced nuclear export of HDAC5”.
The same measure, in the same setting: next, `COc1ccc(S(=O)(=O)N(CCO)c2ccccc2CN(C)C/C=C/c2ccc(Cl)cc2)cc1` [KN93]: “did not significantly affect PE-induced nuclear export of HDAC5”.
Take `Cn1cc(C2=C(c3cn(CCCSC(=N)N)c4ccccc34)C(=O)NC2=O)c2ccccc21` [Ro 31-8220]: the “sensitivity of PKD to the inhibitor” value at PKD is “insensitive”.
Regarding `Cn1cc(C2=C(c3ccc(Cl)cc3Cl)C(=O)NC2=O)c2ccccc21` [SB216763], the “block of PE-induced nuclear export of HDAC5” value in experiment [2] (setting [3]) is “did not significantly affect PE-induced nuclear export of HDAC5”.
Still for that read-out and setting: next, `N#CC(=C(/N)Sc1ccccc1N)/C(C#N)=C(/N)Sc1ccccc1N` [U1026]: “did not significantly affect PE-induced nuclear export of HDAC5”; `C[C@@H](N)[C@H]1CC[C@H](C(=O)Nc2ccncc2)CC1` [Y-27632]: “did not significantly affect PE-induced nuclear export of HDAC5”.
Regarding `COc1ccc(C[C@H]2NC[C@H](O)[C@H]2OC(C)=O)cc1` [anisomycin], in experiment [1], the “stimulation of nuclear export of GFP-HDAC5” value is “only ionomycin and PMA stimulated nuclear export”.
Still for that read-out and setting: to `C[C@H](CCC(=O)O)C[C@H](C)C[C@H](C)C(=O)/C=C(\O)[C@H](C)C[C@H](C)C/C=C/[C@@H](C)[C@@H](O)[C@@H](C)[C@@H](O)C[C@@H]1CC[C@@](C)([C@H]2CC[C@@](C)([C@@H](C)O)O2)O1` [ionomycin] belongs “partial response; also recorded: stimulated nuclear export of GFP-HDAC5”; to `Nc1nc2c(nc(Sc3ccc(Cl)cc3)n2[C@@H]2O[C@@H]3COP(=O)(O)O[C@H]3[C@H]2O)c(=O)[nH]1` [pCPT-GMP], “only ionomycin and PMA stimulated nuclear export”.
Consider `CN[C@@H]1C[C@H]2O[C@@](C)([C@@H]1OC)n1c3ccccc3c3c4c(c5c6ccccc6n2c5c31)C(=O)NC4` [staurosporine], for which the “block of PE-induced nuclear export of HDAC5” value in experiment [2] (setting [3]) is given as “effective in blocking PE-dependent export of HDAC5; also recorded: effective in blocking HDAC5 nuclear export”.
Consider “Endothelin-1 (CSCSSLMDKECVYFCHLDIIW; ends and bridges not checked; cysteine pairing not given here; UniProt P05305 53-73, looked up) [ET-1, hypertrophic agonist purchased from Sigma]”, for which the “agonist-triggered nuclear export of HDAC5 in cardiomyocytes” value in experiment [2] (NRVMs infected with Ad-GFP-HDAC5, PE 0.1 to 20 μM, ET-1 50 nM, FBS 10%) was “effectively promote nuclear export of HDAC5”.
